These results are taken from ChEMBL document CHEMBL5154654, “Design, synthesis and biological evaluation of 7-((7H-pyrrolo[2,3-d]pyrimidin-4-yl)oxy)-2,3-dihydro-1H-inden-1-one derivatives as potent FAK inhibitors for the treatment of ovarian cancer” (Eur J Med Chem, 2022).

Data set [1] deals with Focal adhesion kinase 1 (Homo sapiens, UniProt Q05397). Briefly: Inhibition of FAK (unknown origin) using Fluorescein-Poly GAT as substrate incubated for 30 mins and measured after 60 mins by Lanthascreen assay. (Time-resolved FRET reads energy transfer from a long-lived donor to a nearby acceptor.)
Focal adhesion kinase 1, sequence (Q05397 whole entry): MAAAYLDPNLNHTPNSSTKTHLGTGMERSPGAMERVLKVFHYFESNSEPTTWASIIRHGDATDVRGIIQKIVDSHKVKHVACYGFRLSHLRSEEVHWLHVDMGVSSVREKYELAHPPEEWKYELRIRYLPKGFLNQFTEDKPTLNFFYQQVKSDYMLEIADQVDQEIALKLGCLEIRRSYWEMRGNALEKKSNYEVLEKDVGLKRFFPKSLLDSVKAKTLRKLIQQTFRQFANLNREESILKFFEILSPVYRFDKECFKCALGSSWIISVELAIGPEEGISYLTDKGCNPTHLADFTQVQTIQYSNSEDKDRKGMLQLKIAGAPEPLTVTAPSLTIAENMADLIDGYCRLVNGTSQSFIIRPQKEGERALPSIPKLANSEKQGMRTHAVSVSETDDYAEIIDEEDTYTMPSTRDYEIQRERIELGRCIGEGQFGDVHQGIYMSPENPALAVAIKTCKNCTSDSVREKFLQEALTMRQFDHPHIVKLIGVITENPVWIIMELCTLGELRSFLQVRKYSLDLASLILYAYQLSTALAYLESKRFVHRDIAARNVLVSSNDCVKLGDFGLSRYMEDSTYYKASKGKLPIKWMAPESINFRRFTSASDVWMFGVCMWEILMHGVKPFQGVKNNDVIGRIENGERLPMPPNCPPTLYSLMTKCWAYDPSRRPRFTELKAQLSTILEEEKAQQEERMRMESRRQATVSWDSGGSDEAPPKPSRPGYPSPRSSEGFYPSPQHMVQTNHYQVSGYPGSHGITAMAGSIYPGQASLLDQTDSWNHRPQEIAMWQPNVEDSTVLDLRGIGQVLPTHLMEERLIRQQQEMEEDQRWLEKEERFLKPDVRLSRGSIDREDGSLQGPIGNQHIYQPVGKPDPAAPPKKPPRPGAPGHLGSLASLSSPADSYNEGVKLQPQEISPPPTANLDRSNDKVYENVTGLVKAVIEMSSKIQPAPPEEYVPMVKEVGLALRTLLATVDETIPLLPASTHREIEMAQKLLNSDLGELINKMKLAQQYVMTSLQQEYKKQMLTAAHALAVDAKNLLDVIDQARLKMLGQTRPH
Data set [2] can be described thus: Metabolic stability in human liver microsomes assessed as parent compound remaining incubated for 120 mins in presence of NADPH by LC-MS/MS analysis. It counts as ADME, Microsome. The settings on record: read-out: Stability.
The nature of data set [3]: Metabolic stability in human liver microsomes assessed as half-life incubated for 120 mins in presence of NADPH by LC-MS/MS analysis. It counts as ADME, Microsome.
Data set [4] in a line: Metabolic stability in human liver microsomes assessed as intrinsic clearance incubated for 120 mins in presence of NADPH by LC-MS/MS analysis. To be noted: read-out: CLH. The format is ADME, Microsome.
Data set [5] in a line: Aqueous solubility of compound. It counts as physicochemical. To be noted: aqueous (not further specified).

Values after ≈ are worked out from the molar mass of the structure shown.

In turn, `CN1CCN(c2ccc(Nc3nc(Oc4cccc5c4C(=O)CC5)c4cc[nH]c4n3)cc2F)CC1` registered an IC50 in data set [1] of 5.64 nM. In data set [1], `COc1cc(N2CCN(C)CC2)ccc1Nc1nc(Oc2cccc3c2C(=O)CC3)c2cc[nH]c2n1` had an IC50 of 3.86 nM. In addition, in data set [2], the remaining at 2 h was found to be 62.7%. The half-life in data set [3] was above 2 h. For the same molecule, the CLint scaled in data set [4] was 52 mL/min/kg. The solubility in data set [5] is 13.6 µg/mL (≈ 28.1 µM). `CN1CCN(c2ccc(Nc3nc(Oc4cccc5c4C(=O)CC5)c4cc[nH]c4n3)cc2C#N)CC1` gave an IC50 in data set [1] of 20.6 nM. Still for that read-out and setting: under `COc1cc(N2CCC(N3CCN(C)CC3)CC2)ccc1Nc1nc(-n2cnc3ccccc32)c2cc[nH]c2n1` stands 27.6 nM. `Cc1cc(Nc2nc(Oc3cccc4c3C(=O)CC4)c3cc[nH]c3n2)ccc1N1CCN(CC2CC2)CC1`: inhibition in data set [1] was half-maximal at 4.2 nM (IC50). Also, the remaining at 2 h in data set [2] came to 15.3%. For the same molecule, in data set [3], the half-life was below 0.5 h. Further, the CLint scaled in data set [4] is above 29 mL/min/kg. As for `CN1CCN(c2ccc(Nc3nc(Oc4cccc5c4C(=O)CC5)c4cc[nH]c4n3)c(C(F)(F)F)c2)CC1`, in data set [1], the midpoint of inhibition, the IC50, lay at 99.8 nM. With `O=C1CCc2cccc(Oc3nc(Nc4ccc(N5CCOCC5)cc4)nc4[nH]ccc34)c21`, the IC50 in data set [1] was 12.2 nM. This IC50 lies about 8.2-fold lower than the previous one. With `COc1cc(N2CCOCC2)ccc1Nc1nc(Oc2cccc3c2C(=O)CC3)c2sccc2n1`, 113 nM corresponded to half-maximal inhibition in data set [1] (IC50). Turning to `CN1CCN(C2CCN(c3ccc(Nc4nc(Oc5cccc6c5C(=O)CC6)c5cc[nH]c5n4)cc3)CC2)CC1`, 2.91 nM corresponded to half-maximal inhibition in data set [1] (IC50). In addition, the remaining at 2 h in data set [2] came out at 42.2%. Besides, the half-life in data set [3] amounted to 1.55 h. Further, in data set [4], the CLint scaled came to 93 mL/min/kg. Also, the concentration in solution in data set [5] (solubility) came to 39.4 µg/mL (≈ 73.3 µM).

As for `Cc1cc(N2CCN(C)CC2)ccc1Nc1nc(Oc2cccc3c2C(=O)CC3)c2cc[nH]c2n1`, 7.13 nM corresponded to half-maximal inhibition in data set [1] (IC50). In turn, `COc1cc(N2CCN(C)CC2)ccc1Nc1nc(Oc2cccc3c2C(=O)CC3)c2ccsc2n1` yielded an IC50 in data set [1] above 1000 nM. In data set [1], `COc1cc(N2CCC(N3CCN(C)CC3)CC2)ccc1Nc1nc(Oc2cccc3c2C(=O)CC3)c2ccsc2n1` yielded a half-maximal inhibitory concentration (IC50) of 945 nM. In other words, the sub-micromolar range. In data set [1], `COc1cc(N2CCC(N3CCN(C)CC3)CC2)ccc1Nc1nc(-c2cnn(C)c2)c2cc[nH]c2n1` had an IC50 of 173 nM.

With `COc1nc(N2CCN(C)CC2)ccc1Nc1nc(Oc2cccc3c2C(=O)CC3)c2cc[nH]c2n1`, in data set [1], the IC50 came out at 9.05 nM.

As for `Cc1ccc(Oc2nc(Nc3ccc(N4CCC(N5CCN(C)CC5)CC4)cc3)nc3[nH]ccc23)c2c1CCC2=O`, the midpoint of inhibition in data set [1], the IC50, lay at 2.47 nM. Moreover, the remaining at 2 h in data set [2] was 41.5%. Besides, the half-life in data set [3] was 1.57 h. In addition, the CLint scaled in data set [4] turned out to be 93 mL/min/kg. The solubility in data set [5] came to 38 µg/mL (≈ 68.9 µM). In data set [1], `O=C1CCc2cccc(Oc3nc(Nc4ccc(N5CCOCC5)cc4)nc4ccccc34)c21` yielded a 50% inhibitory concentration (IC50) above 1000 nM.

Consider `CN1CCN(c2ccc(Nc3nc(Oc4cccc5c4C(=O)CC5)c4ccccc4n3)cc2)CC1`, for which the half-inhibitory concentration (IC50) in data set [1] is above 1000 nM.

As for `COc1cc(N2CCN(C)CC2)ccc1Nc1nc(Oc2ccc(C)c3c2C(=O)CC3)c2cc[nH]c2n1`, half-maximal inhibition in data set [1] (IC50) was put at 2.04 nM. The remaining at 2 h in data set [2] amounted to 42.2%. In data set [3], the half-life worked out at 1.65 h. Besides, in data set [4], the CLint scaled came out at 8.8 mL/min/kg. The same molecule displayed a solubility in data set [5] of 7.9 µg/mL (≈ 15.8 µM).

The molecule `COc1cc(N2CCOCC2)ccc1Nc1nc(Oc2cccc3c2C(=O)CC3)c2[nH]ccc2n1` had a half-inhibitory concentration (IC50) in data set [1] above 1000 nM.

Molecule `COc1cc(N2CCOCC2)ccc1Nc1nc(Oc2cccc3c2C(=O)CC3)c2ccsc2n1` showed an IC50 in data set [1] above 1000 nM. The same measure, in the same setting: in the case of `CN1CCN(c2ccc(Nc3nc(Oc4cccc5c4C(=O)CC5)c4sccc4n3)cc2)CC1` it was 110 nM. For `O=C1CCc2cccc(Oc3nc(Nc4ccc(N5CCOCC5)cc4)nc4sccc34)c21`, the half-inhibitory concentration (IC50) in data set [1] was above 1000 nM. The same measure, in the same setting: in the case of `COc1cc(N2CCC(N3CCN(C)CC3)CC2)ccc1Nc1nc(-n2ccc3ccccc32)c2cc[nH]c2n1` it was 144 nM. Take `CN1CCN(c2ccc(Nc3nc(Oc4cccc5c4C(=O)CC5)c4cc[nH]c4n3)cc2Cl)CC1`: the 50% inhibitory concentration (IC50) in data set [1] came out at 4.8 nM. Also, the remaining at 2 h in data set [2] is 15.7%. In data set [3], the half-life was 0.775 h. In addition, the CLint scaled in data set [4] came out at 18.7 mL/min/kg. Take `COc1cc(N2CCC(N3CCN(C)CC3)CC2)ccc1Nc1nc(Oc2cccc3c2C(=O)CC3)c2[nH]ccc2n1`: the half-maximal inhibitory concentration (IC50) in data set [1] is above 1000 nM. In data set [1], `Cc1cc(Nc2nc(Oc3cccc4c3C(=O)CC4)c3cc[nH]c3n2)ccc1OCCN(C)C` yielded an IC50 of 3.93 nM. In addition, the remaining at 2 h in data set [2] stood at 19.8%. Further, the half-life in data set [3] is 0.867 h. In addition, the CLint scaled in data set [4] was determined as 16.7 mL/min/kg. This molecule gave a solubility in data set [5] of 9.3 µg/mL (≈ 20.3 µM). In the case of `COc1cc(N2CCN(C)CC2)ccc1Nc1nc(-c2cnn(C)c2)c2cc[nH]c2n1`, the IC50 in data set [1] is 330 nM. This lies in the sub-micromolar range. As to `CN1CCN(c2ccc(Nc3nc(Oc4cccc5c4C(=O)CC5)c4ccsc4n3)cc2)CC1`, the IC50 in data set [1] is above 1000 nM.

In turn, `COc1cc(N2CCN(C)CC2)ccc1Nc1nc(-n2cnc3ccccc32)c2cc[nH]c2n1` yielded an IC50 in data set [1] of 36.8 nM. The same measure, in the same setting: under `O=C1CCc2cccc(Oc3nc(Nc4ccc(N5CCOCC5)cc4)nc4ccsc34)c21` stands 245 nM. As to `COc1cc(N2CCOCC2)ccc1Nc1nc(Oc2cccc3c2C(=O)CC3)c2cc[nH]c2n1`, in data set [1], the midpoint of inhibition, the IC50, lay at 1140 nM. This IC50 is about 4.7-fold higher than that of the molecule before. In data set [1], `COc1cc(N2C[C@@H]3C[C@H]2CO3)ccc1Nc1nc(Oc2cccc3c2C(=O)CC3)c2cc[nH]c2n1` registered an IC50 of 9.6 nM. Same read-out and setting: in the case of `COc1cc(C(=O)NC2CC2)ccc1Nc1nc(Oc2cccc3c2C(=O)CC3)c2cc[nH]c2n1` it was 10.9 nM; in that of `COc1cc(N2C[C@@H](C)O[C@@H](C)C2)ccc1Nc1nc(Oc2cccc3c2C(=O)CC3)c2cc[nH]c2n1`, 11.9 nM. With `O=C1NCc2cc(Nc3nc(Oc4cccc5c4C(=O)CC5)c4cc[nH]c4n3)ccc21`, the IC50 in data set [1] is 20.6 nM. Still for that read-out and setting: under `COc1cc(N2CCN(C)CC2)ccc1Nc1nc(Oc2cccc3c2C(=O)CC3)c2ccccc2n1` stands 231 nM; under `COc1cc(N2CCC(N3CCN(C)CC3)CC2)ccc1Nc1nc(Oc2cccc3c2C(=O)CC3)c2ccccc2n1`, 246 nM.

In data set [1], `Cc1cc(Nc2nc(Oc3cccc4c3C(=O)CC4)c3cc[nH]c3n2)n(C(C)C)n1` displayed an IC50 of 206 nM. This IC50 and that of the molecule before are within 1.5-fold of each other. The same measure, in the same setting: in the case of `CN1CCN(c2ccc(Nc3nc(Oc4cccc5c4C(=O)CC5)c4cc[nH]c4n3)cc2)CC1` it was 10.5 nM. On to `COc1cc(N2CCC(N3CCN(C)CC3)CC2)ccc1Nc1nc(Oc2cccc3c2C(=O)CC3)c2sccc2n1`, for which the IC50 in data set [1] was found to be 27.4 nM.

The molecule `COc1cc(N2CCOCC2)ccc1Nc1nc(Oc2cccc3c2C(=O)CC3)c2ccccc2n1` showed an IC50 in data set [1] of 654 nM.

`O=C1CCc2cccc(Oc3nc(Nc4ccc(N5CCOCC5)cc4)nc4cc[nH]c34)c21` returned an IC50 in data set [1] above 1000 nM. With `COc1cc(N2CCN(C)CC2)ccc1Nc1nc(Oc2cccc3c2C(=O)CC3)c2sccc2n1`, in data set [1], inhibition was half-maximal at 41.4 nM (IC50).

Take `Cc1cc(Nc2nc(Oc3cccc4c3C(=O)CC4)c3cc[nH]c3n2)ccc1N1CCN(C2COC2)CC1`: half-maximal inhibition in data set [1] (IC50) was put at 6.32 nM.

The molecule `COc1cc(N2CCN(C)CC2)ccc1Nc1nc(Oc2cccc3c2C(=O)CC3)c2[nH]ccc2n1` registered an IC50 in data set [1] above 1000 nM. For the molecule `COc1cc(N2CCN(C)CC2)ccc1Nc1nc(-n2ccc3ccccc32)c2cc[nH]c2n1`, the 50% inhibitory concentration (IC50) in data set [1] amounted to 166 nM. In data set [1], `CN1CCN(c2ccc(Nc3nc(Oc4cccc5c4C(=O)CC5)c4[nH]ccc4n3)cc2)CC1` gave an IC50 above 1000 nM.

By IC50 is commonly meant the midpoint of a concentration-inhibition curve. The low end stands for higher potency, the high end for lower potency. For orientation: half-life means how long it takes for the measured level to halve. As a reminder, the solubility is the dissolved amount per volume that the medium holds. Low readings indicate little dissolved substance, high ones much dissolved substance.
